Converted amounts (≈) assume the structure as drawn.
What was measured:
[1] = test system: M. haemolytica; experiment: MIC, M. haemolytica strains; assay type: cell-based; settings: Mannheimia haemolytica
Excerpt: (§1) Primary screening of the compounds of the invention included the evaluation of antibacterial activity of analogs through determination of microbial inhibition concentration (MIC) as per CLSI guidelines. The screening panel included the relevant BRD pathogens: 1) M. haemolytica (e.g., 12726, 46571 and 49023, all AHDRCC; and 33396 (ATCC)); and 2) P. multocida (e.g., 34135 and 46572 (both AHDRCC) and 43137 (ATCC)). In some instances, H. somni (A700025K) pathogens were also included in the screening panel. The AHDRCC strains originated from the Zoetis BRD/SRD surveillance program and refer to the Animal Health Development and Research Culture Collection. In addition, the screen assessed S. aureus (29213 ATCC) as a representative Gram-positive isolate, E.faecalis (19433 ATCC) as a commensal gram-positive gastrointestinal bacterium and E. coli (100, 3110 and 25922 (ATCC)) for the evaluation of efflux potential. The screening panel BRD pathogens were assessed in determining antibacterial activity of the Formula (1) compounds.
(§2) All relevant BRD pathogens were initially screened at a top concentration of 64 μg/mL of a Formula (1) compound in an eleven-point dilution series. […] If an Example was purified further, the MICs moved […] essentially two dilutions across all strains tested in the screening panel.
(§3) In-Vitro MIC Model Compounds were analyzed for antibacterial activity against a panel of animal health specific gram-positive and gram-negative clinical strains by diluting compounds in DMSO to an appropriate stock concentration to determine the Minimal Inhibitory Concentration (MIC) via a semi-automated broth micro-dilution method (CLSI reference method) with QC strains and anti-microbial agent(s). Specifically, bacteria were grown overnight on TSA w/5% sheep blood agar plates and diluted in saline buffer to a McFarland Standard 0.5, then further diluted in cation-ion adjusted Mueller Hinton Broth to a final concentration of approximately 5×10^5 CFU/mL. 100 μL of inoculated media was added to 96-well plate(s) with 3 μL of serially diluted compound in each row. Depending on strain (see CLSI reference method), bacteria were incubated 18-22 hours at 35-37° C. in ambient air, with 5% CO2 or anaerobically (up to 48 hours).

[2] = test system: S. aureus; experiment: MIC, S. aureus; assay type: cell-based; settings: Staphylococcus aureus; S. aureus 29213
Excerpt: as §1, §2, §3

[3] = test system: E. coli; experiment: MIC, E. coli; assay type: cell-based; settings: Escherichia coli
Excerpt: as §1, §2, §3

[4] = test system: P. multocida 46572; experiment: In vivo mouse lung infection challenge model (murine efficacy), survival; set-up: species or system CD-1 female mice; settings: 20 mg/kg subcutaneous; for % Survival: P. multocida 46572 intranasal challenge, harmonized relative to vehicle (−) and M9 (+) controls
Protocol: The challenge organism was P. multocida 46572. Target challenge concentration was 5×10^2 CFU/mouse. Isolated colonies from overnight growth (37° C. with 5% CO2) on trypticase soy agar (TSA II) blood plates were transferred to room temperature Brain Heart Infusion Broth (BHIB). The broth culture was incubated 3.5-4 hours to approximately mid-log phase of growth, as measured by forward light scatter at 600 nm (OD600, 0.200). The culture was centrifuged to collect the bacterial pellet. The pellet was re-suspended in BHIB and adjusted to provide an approximate concentration of 2.7 log 10 colony forming units (CFU) in 0.04 mL at the highest concentration. The challenge inoculum concentration was confirmed by serial dilutions of the inoculum for CFU enumeration. On Day −5, CD −1 female mice were received. Mice were given standard rodent diet and water ad libitum. On Day 0, bacterial inoculum (0.04 mL) was administered to each mouse (n=36) intranasally. Compounds of the invention were dosed at 20 mg/kg (0.1 mL) in a buffered (˜pH 5.4) propylene glycol, monothioglycerol and water solution by subcutaneous injection. Animals were observed from Days 1-10. The study was terminated on Day 10. In addition, some treatment groups were sampled at 6, 24, and 48 hours post bacterial challenge for RNA sequence analysis of lung tissue.
The murine efficacy model (P.multocida challenge) was optimized, and the treatment group size was powered to be able to observe statistically significant improvement of survival to expected ranges for immunomodulatory compounds. The experimental design was a randomized complete block design. Mice were individually identified and treatment groups comingled within a cage, with every treatment group equally represented across cages. Mortality was the primary variable. Mortality data was analyzed using a generalized mixed model with fixed effect of treatment and random effect of block. Survival time was also analyzed using the SAS PHREG (survival analysis) procedure to examine whether there were significant differences between treatment groups and the control group. Numerous compounds of the invention and M9 (positive control) were tested in this model at a dose of 20 mg/kg (Table 3). Typical percent survival for no treatment control is in the range of 0-20% based on study to study variation in challenge inoculum and rate of infection. […] Mouse survival for M9 was about 90-100%, further supporting its residual antibacterial properties against the bacterial strain.

[5] = test system: IL-6; experiment: Whole bovine blood assay, LPS-induced IL-6; assay type: cell-based; settings: Bos taurus, fresh whole bovine blood, LPS stimulant; top drug concentration 250 μM
[6] = M. haemolytica 46571, bovine efficacy challenge strain

Row | SMILES | MIC ([1]; M. haemolytica 12726) [µg/mL] | MIC ([1]; M. haemolytica 33396) [µg/mL] | MIC [1, 6] [µg/mL] | MIC [2] [µg/mL] | MIC ([3]; E. coli 25922) [µg/mL] | MIC ([3]; E. coli W3110) [µg/mL] | % Survival [4] [%] | IC50 [5] [µM] | Mouse survival ([4]; M9 positive control)
1 | CC[C@H]1OC(=O)[C@H](C)[C@@H](O[C@H]2C[C@@](C)(OC)[C@](O)(CN3CCCCC3)[C@H](C)O2)[C@H](C)[C@@H](O[C@@H]2O[C@H](C)C[C@H](N(C)S(=O)(=O)c3ccc(Cl)cc3)[C@H]2O)[C@](C)(O)C[C@@H](C)CN[C@H](C)[C@@H](O)[C@]1(C)O [Example C-4, 4-chloro-N-((2S,3R,4S,6R)-2-(((2R,3S,4R,5R,8R,10R,11R,12S,13S,14R)-2-ethyl-3,4,10-trihydroxy-13-(((2R,4R,5S,6S)-5-hydroxy-4-methoxy-4,6-dimethyl-5-(piperidin-1-ylmethyl)tetrahydro-2H-pyran-2-yl)oxy)-3,5,8, 10, 12, 14-hexamethyl-15-oxo-1-oxa-6-azacyclopentadecan-11-yl)oxy)-3-hydroxy-6-methyltetrahydro-2H-pyran-4-yl)-N-methylbenzenesulfonamide] | > 128 | > 128 | > 128 | > 128 | > 128 | > 128 | 76 | – | –
2 | CC[C@H]1OC(=O)[C@H](C)[C@@H](O)[C@H](C)[C@@H](O[C@@H]2O[C@H](C)C[C@H](N(C)S(=O)(=O)c3ccccc3)[C@H]2Oc2ccc(OC)cc2)[C@](C)(O)C[C@@H](C)CN[C@H](C)[C@@H](O)[C@]1(C)O [Example A-9, N-((2S,3R,4S,6R)-2-(((2R,3S,4R,5R,8R,10R,11R,12S,13S,14R)-2-ethyl-3,4,10,13-tetrahydroxy-3,5,8,10, 12, 14-hexamethyl-15-oxo-1-oxa-6-azacyclopentadecan-11-yl)oxy)-3-(4-methoxyphenoxy)-6-methyltetrahydro-2H-pyran-4-yl)-N-methylbenzenesulfonamide] | > 64 | > 64 | > 64 | > 64 | > 64 | > 64 | 41 | 21 | –
3 | CC[C@H]1OC(=O)[C@H](C)[C@@H](O[C@H]2C[C@@](C)(OC)[C@](O)(CN3CCCCC3)[C@H](C)O2)[C@H](C)[C@@H](O[C@@H]2O[C@H](C)C[C@H](N(C)S(=O)(=O)Nc3ccc(C(F)(F)F)cc3)[C@H]2O)[C@](C)(O)C[C@@H](C)CN[C@H](C)[C@@H](O)[C@]1(C)O [Example C-11, (2R,3S,4R,5R,8R,10R,11R,12S, 13S, 14R)-2-ethyl-3,4, 10-trihydroxy-13-[(2R,4R,5S,6S)-5-hydroxy-4-methoxy-4,6-dimethyl-5-(piperidin-1-ylmethyl)oxan-2-yl]oxy-11-[(2S,3R,4S,6R)-3-hydroxy-6-methyl-4-[methyl-[[4-(trifluoromethyl)phenyl]sulfamoyl]amino]oxan-2-yl]oxy-3,5,8, 10, 12, 14-hexamethyl-15-oxo-1-oxa-6-azacyclopentadecane] | > 64 | > 64 | > 64 | > 64 | > 64 | > 64 | 56 | 13 | –
4 | CCCNC[C@]1(O)[C@H](C)O[C@@H](O[C@H]2[C@H](C)[C@@H](O[C@@H]3O[C@H](C)C[C@H](N(C)S(=O)(=O)Nc4ccc(C(F)(F)F)cc4)[C@H]3O)[C@](C)(O)C[C@@H](C)CN[C@H](C)[C@@H](O)[C@](C)(O)[C@@H](CC)OC(=O)[C@@H]2C)C[C@@]1(C)OC [Example B-50, (2R,3S,4R,5R,8R,10R,11R,12S,13S, 14R)-2-ethyl-3,4,10-trihydroxy-13-[(2R,4R,5S,6S)-5-hydroxy-4-methoxy-4,6-dimethyl-5-(propylaminomethyl)oxan-2-yl]oxy-11-[(2S,3R,4S,6R)-3-hydroxy-6-methyl-4-[methyl-[[4-(trifluoromethyl)phenyl]sulfamoyl]amino]oxan-2-yl]oxy-3,5,8, 10, 12, 14-hexamethyl-15-oxo-1-oxa-6-azacyclopentadecane] | > 64 | > 64 | > 64 | > 64 | > 64 | > 64 | 88 | 49 | –
5 | CCCNC[C@]1(O)[C@H](C)O[C@@H](O[C@H]2[C@H](C)[C@@H](O[C@@H]3O[C@H](C)C[C@H](N(C)S(=O)(=O)c4ccc(C)cc4)[C@H]3O)[C@](C)(O)C[C@@H](C)CN[C@H](C)[C@@H](O)[C@](C)(O)[C@@H](CC)OC(=O)[C@@H]2C)C[C@@]1(C)OC [Example B-26, N-((2S,3R,4S,6R)-2-(((2R,3S,4R,5R,8R,10R,11R,12S,13S,14R)-2-ethyl-3,4,10-trihydroxy-13-(((2R,4R,5S,6S)-5-hydroxy-4-methoxy-4,6-dimethyl-5-((propylamino)methyl)tetrahydro-2H-pyran-2-yl)oxy)-3,5,8,10,12,14-hexamethyl-15-oxo-1-oxa-6-azacyclopentadecan-11-yl)oxy)-3-hydroxy-6-methyltetrahydro-2H-pyran-4-yl)-N,4-dimethylbenzenesulfonamide] | > 64 | > 64 | > 64 | > 64 | > 64 | > 64 | 37 | – | –
6 | CCCNC[C@]1(O)[C@H](C)O[C@@H](O[C@H]2[C@H](C)[C@@H](O[C@@H]3O[C@H](C)C[C@H](NC)[C@H]3O)[C@](C)(O)C[C@@H](C)CN[C@H](C)[C@@H](O)[C@](C)(O)[C@@H](CC)OC(=O)[C@@H]2C)C[C@@]1(C)OC [Example M9, (2R,3S,4R,5R,8R,10R,11R,12S,13S,14R)-2-ethyl-3,4, 10-trihydroxy-13-(((2R,4R,5S,6S)-5-hydroxy-4-methoxy-4,6-dimethyl-5-((propylamino)methyl)-tetrahydro-2H-pyran-2-yl)oxy)-11-(((2S,3R,4S,6R)-3-hydroxy-6-methyl-4-(methylamino)tetrahydro-2H-pyran-2-yl)oxy)-3,5,8,10,12,14-hexamethyl-1-oxa-6-azacyclopentadecan-15-one] | 22 (≈ 27.8 µM) | – | – | – | > 64 | 64 (≈ 80.8 µM) | – | – | 90-100%
